This assay relates to MDA-MB-468 breast. Briefly: NCI tumour cell line growth inhibition, 48 h.

Where “and” joins values, the source holds several entries; their conditions need not be identical. Identical values can stand only once.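 Dose response: 5 concentrations. Exposure: 48 h. Format: 96-well plates. Endpoint: linear interpolation; highest concentration if not reached. GI50: concentration for 50% inhibition of growth. TGI is the concentration that stops growth completely.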

In the case of `O=C1NC(=O)C(c2ccccc2Cl)=C1Nc1cccc(O)c1`, the GI50 is 0.706 µM and the TGI was 7.16 µM.
In the case of `Cc1ccc(S(=O)(=O)NCCN2c3nc4ccccc4cc3Sc3cc4ccccc4nc32)cc1`, the GI50 was 13.1 µM and the TGI is above 100 µM.
In the case of `COC(=O)c1ccc2c(c1)c1c(C)c3cnccc3c(C)c1n2C`, the GI50 is 0.225 µM and the TGI amounted to 0.677 µM.
`COc1ccc(-c2cn3ccnc3c(-c3ccc4ncn(C5CCCCC5)c4c3)n2)cc1`: the GI50 is 0.863 µM and the TGI is above 100 µM.
Turning to `ClCCn1cnc2c(SCc3ccccc3)ncnc21`, the GI50 was 11.1 µM and the TGI is above 100 µM.
Take `CC1(C)C(=O)/C(=C\c2ccco2)C[C@]2(C)[C@H]3CC=C4[C@@H]5C[C@](C)(C(=O)O)CC[C@]5(C)CC[C@@]4(C)[C@]3(C)CC[C@@H]12`: the GI50 is 10.7 µM and the TGI amounted to 26.5 µM.
Consider `O=[N+]([O-])/C=C\c1ccc2c(c1)OCO2`, for which the GI50 was 2.17 µM and the TGI was 5.82 µM.
As for `CCc1ccc(C2=C(O)C(=O)C(c3ccc(CC)cc3)=C(O)C2=O)cc1`, the GI50 was 1.86 µM and the TGI came to 6.26 µM.
Regarding `O=C(Nc1ccc(Br)cc1)c1cc(Br)cc(Br)c1O`, the GI50 is 2.32 µM and the TGI was found to be 5.66 µM.
Take `CCCCc1cc(O)ccc1O`: the GI50 was 14 µM and the TGI was found to be 31.7 µM.
As for `COc1cccc(C2c3cc4c(cc3OC(N3CCOCC3)C2C)OCO4)c1O` (configuration not stated), the GI50 is 4.26 µM and the TGI is above 100 µM.
On to `CCN(CC)C(=S)SSC1CCCCC1`, for which the GI50 was 19.4 µM and the TGI was 49.4 µM.
For `CC(=O)Oc1ccc2c(c1)CC[C@@H]1C2[C@@H](O[N+](=O)[O-])C[C@@]2(C)C1CC[C@@H]2O` (some centres not stated), the GI50 is 22.5 µM and the TGI was 89.2 µM.
Taken in the same sequence, the figures for `Cc1cc(O)cc(C)c1/C=C/c1cncc(C(=O)N(C)C)c1` were above 25 µM and above 25 µM.
As for `CCN(CC)CC(C)Nc1ccc(C)c2sc3ccccc3c(=O)c12` (configuration not stated), the GI50 was 2.57 µM and the TGI was 7.57 µM.
Take `C=C(CNCCO)[C@@H]1CC[C@]2(CO)CC[C@]3(C)[C@H](CC[C@@H]4[C@@]5(C)CCC(NCCc6ccc(O)cc6)C(C)(C)[C@@H]5CC[C@]43C)[C@@H]12` (some centres not stated): the GI50 was 0.782 µM and the TGI was 2.34 µM.
Taken in the same sequence, the figures for `C=C1C(=O)O[C@H]2[C@H]1CC/C(COC(=O)c1ccc(C(=O)O)s1)=C\CC[C@@]1(C)O[C@@H]21` were 1.22 µM and 3.09 µM.
As to `CC1=CC[C@@H]2C(C)(C)[C@@H](O)CC[C@@]2(C)[C@@H]1COc1ccc2ccc(=O)oc2c1`, the GI50 is 3.11 µM and the TGI was determined as 15 µM.
In the case of `CCC(=O)N1C/C(=C/c2ccc(OC)cc2)C(=O)/C(=C/c2ccc(OC)cc2)C1`, the GI50 was 1.85 µM and the TGI worked out at 4.92 µM.
Turning to `CCOC(=O)/C=C/c1ccc(C(=O)OCC)[nH]1`, the GI50 was 2.53 µM and the TGI is 8.16 µM.
For `O=C(/C=C/c1ccc([N+](=O)[O-])o1)NNC(=O)c1cc2ccccc2cc1O`, the GI50 is 0.721 µM and the TGI worked out at 3.59 µM.
Consider `Cc1ccc(-c2cc3nc(-c4ccccc4)nc(C(Cl)Cl)n3n2)cc1`, for which the GI50 was 0.383 µM and the TGI is 1.31 µM.
On to `O=Nc1c2cccnc2n2nnc3ccc(Cl)cc3c12`, for which the GI50 was 0.136 µM and the TGI was 0.701 µM.
As to `O=C(N/N=C/c1ccc(F)cc1)c1[nH]c2ccc(I)cc2c1-c1ccccc1`, the GI50 is 0.345 µM and the TGI stood at 13.9 µM.
Consider `CC/C=C\C[C@H](O)C/C=C1/C(=O)C=C[C@@H]1C/C=C\CCCC(N)=O`, for which the GI50 was 1.12 µM and the TGI was determined as 2.86 µM.
Consider `CN(C)CCNc1cccc2sc3ccc(O)cc3c(=O)c12`, for which the GI50 is 1.96 µM and the TGI came out at 4.56 µM.
Take `Cn1cnc([N+](=O)[O-])c1Sc1ncnc2nc[nH]c12`: the GI50 is 2.1 µM and 3.37 µM; the TGI is 70.3 µM and > 100 µM.
`Cc1ccc2c(c1)sc(-c1ccc(N(C)C)cc1)[n+]2C`: the GI50 was 0.302 µM and the TGI stood at 5.74 µM.
With `COc1cccc2c(=O)c3c(sc12)c(NCCCN)nc1ccccc13`, the GI50 is 1.63 µM and the TGI was determined as 3.2 µM.
With `CS(=O)(=O)Nc1cc(-c2ccc3ncc(C#N)c(NCc4ccccc4F)c3c2)cnc1Cl`, the GI50 was 0.0781 µM and the TGI came out at 1.08 µM.
In the case of `OC1CCC(Oc2cccc3cnc(Nc4ccc5nc[nH]c5c4)nc23)CC1` (configuration not stated), the GI50 was 0.327 µM and the TGI turned out to be 1.37 µM.

These data come from PubChem BioAssay (NCI).
